According to ChEMBL document CHEMBL5338745, “Factor XIa Inhibitors in Anticoagulation Therapy: Recent Advances and Perspectives” (J Med Chem, 2023):
Each block holds one compound with its values, some of them ahead of it.

Experiments:
[1] = Clearance in Sprague-Dawley rat at 0.5 mg/kg, iv; type: ADME, organism-based; conditions: in vivo
[2] = target: T1, Coagulation factor XI (Homo sapiens, UniProt P03951); test: Inhibition of FXIa (unknown origin)
[3] = Oral bioavailability in Sprague-Dawley rat at 3 mg/kg; type: ADME, organism-based; conditions: in vivo
[4] = test system: Plasma; test: Anticoagulant activity in human plasma assessed as concentration required to double the activated partial thromboplastin time; type: functional
[5] = Half life in Sprague-Dawley rat at 0.5 mg/kg, iv; type: ADME, organism-based; conditions: in vivo
[6] = in vivo; conditions: rat, iv, 0.3 mg/kg
[7] = in vivo; conditions: rhesus monkey, iv, 3 mg/kg
[8] = Oral bioavailability in cynomolgus monkey at 10 mg/kg, […]; type: ADME, organism-based, Macaca fascicularis; conditions: in vivo
[9] = Clearance in cynomolgus monkey at 1 mg/kg, iv; type: ADME, organism-based, Macaca fascicularis; conditions: in vivo
[10] = Half life in cynomolgus monkey at 1 mg/kg, iv; type: ADME, organism-based, Macaca fascicularis; conditions: in vivo
[11] = Clearance in Sprague-Dawley rat at 1 mg/kg, iv; type: ADME, organism-based; conditions: in vivo
[12] = Half life in Sprague-Dawley rat at 1 mg/kg, iv; type: ADME, organism-based; conditions: in vivo
[13] = target: T1, Coagulation factor XI; test: Inhibition of human FXIa by absorbance based analysis
[14] = Selectivity index, ratio IC50 for FXIa (unknown origin) to IC50 for FD (unknown origin)
[15] = Half life in mouse; type: ADME, organism-based; conditions: in vivo
[16] = Half life in Sprague-Dawley rat at 5 to 10 mg/kg, po by LC-MS/MS analysis; type: ADME, organism-based; conditions: in vivo, dose 5-10 mg/kg
[17] = Oral bioavailability in Sprague-Dawley rat at 5 to 10 mg/kg by LC-MS/MS analysis; type: ADME, organism-based; conditions: in vivo, dose 5-10 mg/kg
[18] = target: Plasma kallikrein (Homo sapiens, UniProt P03952)
[19] = Clearance in Sprague-Dawley rat at 5 to 10 mg/kg, po by LC-MS/MS analysis; type: ADME, organism-based; conditions: in vivo, dose 5-10 mg/kg
[20] = Plasma protein binding in human at 10 pM incubated for 4 hrs by HPLC-MS/MS analysis; type: ADME, cell-free; conditions: read-out: PPB
[21] = Oral bioavailability in dog; type: ADME, organism-based, Canis lupus familiaris; conditions: in vivo
[22] = Metabolic stability in dog liver microsomes assessed as half life; type: ADME, Canis lupus familiaris, Microsome
[23] = test system: Plasma; test: Anticoagulant activity in human plasma assessed as concentration required to 1.5 times activation of partial thromboplastin time; type: functional
[24] = Oral bioavailability in rat at 1.5 mg/kg; type: ADME, organism-based; conditions: in vivo
[25] = Clearance in rat at 1 mg/kg, iv; type: ADME, organism-based; conditions: in vivo
[26] = target: T1, Coagulation factor XI; test: Inhibition of FXIa (unknown origin) relative to control; conditions: concentration not given here

T1 sequence (P03951 19-387 limits assumed): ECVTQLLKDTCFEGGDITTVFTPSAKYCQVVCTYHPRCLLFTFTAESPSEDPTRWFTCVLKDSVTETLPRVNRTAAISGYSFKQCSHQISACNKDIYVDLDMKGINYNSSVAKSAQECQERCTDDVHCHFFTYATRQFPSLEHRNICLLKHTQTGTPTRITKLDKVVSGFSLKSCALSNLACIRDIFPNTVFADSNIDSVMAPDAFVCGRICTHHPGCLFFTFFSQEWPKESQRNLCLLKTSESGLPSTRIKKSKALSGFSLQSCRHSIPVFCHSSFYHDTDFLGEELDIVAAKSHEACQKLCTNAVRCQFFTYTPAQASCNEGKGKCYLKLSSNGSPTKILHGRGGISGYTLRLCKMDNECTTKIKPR
T1 sequence (P03951 388-625 limits assumed): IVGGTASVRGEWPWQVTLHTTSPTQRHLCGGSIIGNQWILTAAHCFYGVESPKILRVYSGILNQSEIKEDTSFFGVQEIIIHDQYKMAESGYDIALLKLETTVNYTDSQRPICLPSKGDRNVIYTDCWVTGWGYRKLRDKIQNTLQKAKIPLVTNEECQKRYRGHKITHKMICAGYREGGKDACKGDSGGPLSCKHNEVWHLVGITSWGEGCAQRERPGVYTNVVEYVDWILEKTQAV
Plasma kallikrein, sequence (P03952 20-390 limits assumed): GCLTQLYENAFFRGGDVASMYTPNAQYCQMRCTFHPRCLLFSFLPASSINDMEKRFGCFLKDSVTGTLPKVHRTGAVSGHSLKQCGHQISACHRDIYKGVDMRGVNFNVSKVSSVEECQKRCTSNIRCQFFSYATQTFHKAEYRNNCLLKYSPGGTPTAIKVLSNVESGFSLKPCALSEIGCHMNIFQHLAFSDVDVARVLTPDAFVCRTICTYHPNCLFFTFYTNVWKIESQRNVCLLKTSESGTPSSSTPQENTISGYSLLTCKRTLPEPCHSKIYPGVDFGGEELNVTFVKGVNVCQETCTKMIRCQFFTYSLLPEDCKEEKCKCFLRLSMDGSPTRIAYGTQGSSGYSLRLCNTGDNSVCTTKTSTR
Plasma kallikrein, sequence (P03952 391-638 limits assumed): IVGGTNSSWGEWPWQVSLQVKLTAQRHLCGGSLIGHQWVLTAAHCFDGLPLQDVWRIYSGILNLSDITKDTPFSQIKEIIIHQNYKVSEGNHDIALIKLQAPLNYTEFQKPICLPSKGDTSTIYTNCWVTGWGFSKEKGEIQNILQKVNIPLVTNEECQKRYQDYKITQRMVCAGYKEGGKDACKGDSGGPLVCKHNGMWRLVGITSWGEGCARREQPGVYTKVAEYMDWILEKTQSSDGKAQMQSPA

clearance [6]: 13.3 mL/min/kg
clearance [7]: 5.5 mL/min/kg
Compound: CC[C@@H](C(=O)Nc1ccc(C(N)=O)c(F)c1)n1cc(OC)c(-c2cc(Cl)ccc2-n2cc(Cl)nn2)cc1=O

IC50 [2]: 6.4 nM
Compound: O=C(O)c1cc2cc(NC(=O)[C@@H]3CCc4cc(-c5cc(Cl)ccc5-n5cnnn5)cc(=O)n43)ccc2[nH]1

clearance [11]: 33.3 mL/min/kg
half-life [12]: 0.46 h
IC50 [13]: 1.75 nM
Compound: O=C(O)c1cc2cc(NC(=O)[C@H](Cc3ccc(N4CCN(C5CCC(O)CC5)CC4=O)cc3)N3CCN(c4cc(Cl)ccc4-n4cnnn4)C(=O)C3=O)ccc2[nH]1 (stereo not given in full)
EC [4]: 1.1 µM

Ratio IC50 [14]: 700
half-life [15]: 9 h
Compound: CC(C)c1cc(CCN2CCc3cccc(C(=O)O)c32)cc(-c2ccc3c(c2)[C@H](N)CO3)c1

half-life [16]: 3.25 h
bioavailability [17]: 53.4%
IC50 [2]: 1.8 nM
IC50 [18]: 13 nM
CL/F [19]: 19.6 mL/min/kg
Compound: O=c1cc(-c2c(-n3cnnn3)ccc(Cl)c2F)cc2n1[C@H](c1ccc(-c3ccnc(CO)c3F)[nH]1)CC2

IC50 [2]: < 10 nM
fraction unbound at 4 h, 1e-05 µM [20]: 0.5
bioavailability [21]: > 33%
half-life [22]: 2.02 h
Compound: CC[C@@H](NC(=O)N1C(=O)[C@H](Cc2ccnc(N)c2)[C@H]1C(=O)N(C)c1nccn1C)c1ccccc1

Further lines, the compound ahead of its results:

Compound: C[C@@H]1CCC[C@H](c2ccc(-c3cc(Cl)ccc3-n3cc(Cl)nn3)oc2=O)c2cc(ccn2)-c2c(cnn2C(F)F)NC1=O
clearance [1]: 5.65 mL/min/kg
IC50 [2]: 3.9 nM
bioavailability [3]: 37.1%
EC [4]: 0.87 µM
half-life [5]: 1 h

Compound: Nc1ccc(-c2cnc(Cn3c4c(c(-c5cc(Cl)ccc5-n5cnnn5)cc3=O)OCC4)[nH]2)c(F)n1
IC50 [2]: 1.6 nM

Compound: C[C@@H]1CCC[C@H](n2cnc(-c3cc(Cl)ccc3-n3cnnn3)cc2=O)c2cc(c3c(n2)OCCO3)-c2c(cnn2C)NC1=O
IC50 [2]: 10.4 nM

Compound: O=C(O)c1ccc(NC(=O)[C@H](Cc2ccccc2)N2CCC(c3cc(Cl)ccc3-n3cc(Cl)nn3)=CC2=O)cc1
IC50 [2]: 1.73 nM

Compound: [2H]C([2H])([2H])n1ncc2c1-c1ccnc(c1)[C@@H](c1coc(-c3cc(Cl)ccc3-n3cc(Cl)nn3)cc1=O)CCC[C@@H](C)C(=O)N2
IC50 [2]: 6.1 nM
EC [4]: 2.7 µM
bioavailability [8]: 36.8%
clearance [9]: 8.6 mL/min/kg
half-life [10]: 1.05 h

Compound: Nc1ccc(-c2nc([C@H]3CCc4cc(-c5cc(Cl)ccc5-n5cnnn5)cc(=O)n43)c(F)[nH]2)c(F)n1 [ONO-7684]
Ki [2]: 2 nM

Compound: COc1cn(C(Cc2ccccc2)c2nc3cc(C(=O)O)ccc3[nH]2)c(=O)cc1-c1cc(Cl)ccc1-n1cnnn1 (stereo not given)
IC50 [2]: 3 nM

Compound: O=C(O)c1ccc(NC(=O)[C@H](CC2CC2)c2ccc(-c3c(C(F)F)ccc(Cl)c3F)c[n+]2[O-])cc1 (mixture of isomers)
EC [23]: 0.61 µM
bioavailability [24]: 89%
clearance [25]: 1.9 mL/min/kg

Compound: Nc1ccc(-c2cnc([C@H](CC3CC3)c3ccc(-c4cc(Cl)ccc4-n4cnnn4)c[n+]3[O-])[nH]2)c(Cl)n1
IC50 [2]: 0.32 nM
IC50 [18]: 80 nM

Compound: Cc1ccc(C(=O)Nc2ccc(CP(=O)(O)O)cc2CP(=O)(O)O)cc1NC(=O)c1cccc(NC(=O)Nc2cccc(C(=O)Nc3cc(C(=O)Nc4ccc(CP(=O)(O)O)cc4CP(=O)(O)O)ccc3C)c2)c1
inhibition [26]: 68%

Compound: CC[C@@H](NC(=O)N1C(=O)[C@H](Cc2ccnc(N)c2)[C@H]1C(=O)O)c1ccccc1
IC50 [2]: < 10 nM
